Patent US5550110A, “Endothelin Antagonists II” (Warner-Lambert Company, priority 1994, dated 1996)
Peptide text beside a SMILES is read from it.

Experiments:
[1] = biological target: T1, ETB (porcine pulmonary arteries) (Sus scrofa, UniProt P35463); conditions: isolated, endothelium-intact porcine pulmonary arteries; cited from earlier work
T1 construct: host or cells: isolated, endothelium-intact porcine pulmonary arteries
T1 sequence (P35463 27-443): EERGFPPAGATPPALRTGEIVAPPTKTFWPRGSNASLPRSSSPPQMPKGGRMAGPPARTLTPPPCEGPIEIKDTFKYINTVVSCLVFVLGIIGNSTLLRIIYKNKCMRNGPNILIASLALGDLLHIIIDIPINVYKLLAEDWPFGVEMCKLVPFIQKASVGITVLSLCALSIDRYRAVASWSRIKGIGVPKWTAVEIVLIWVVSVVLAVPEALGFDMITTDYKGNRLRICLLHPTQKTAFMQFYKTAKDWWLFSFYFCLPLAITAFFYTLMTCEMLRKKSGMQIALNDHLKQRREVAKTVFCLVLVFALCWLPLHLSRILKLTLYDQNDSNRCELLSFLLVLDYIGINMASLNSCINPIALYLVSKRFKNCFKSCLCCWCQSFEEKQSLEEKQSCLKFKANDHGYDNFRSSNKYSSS

[2] = tested on: endothelin receptor (ETA), rabbit renal artery vascular smooth muscle cells; assay: Endothelin Receptor Binding Assay-A (ERBA-A), intact cell binding of [125I]-ET-1; conditions: [125I]-ET-1 25 pM
Description: The compounds of Formula I are valuable antagonists of endothelin. […] Thus, the compounds of Formula I were tested for their ability to inhibit [^125 I]-ET-1([^125 I]-Endothelin-1) binding in a receptor assay according to the following procedures: Endothelin Receptor Binding Assay-A (ERBA-A) Intact Cell Binding of [^125 I]-ET-1 The cells used were rabbit renal artery vascular smooth muscle cells grown in a 48-well dish (1 cm^2) (confluent cells). The assay buffer was a medium 199 containing Hanks salts and 25 mM Hepes buffer (Gibco 380-2350AJ), supplemented with penicillin/streptomycin/fungizone (0.5%) and bovine serum albumin (1 mg/mL). Amersham radioiodinated endothelin-1 [^125 I]-ET-1 was used at final concentration of 20,000 cpm/0.25 mL (25 pM). […] Second, remove the assay buffers, place the dish on ice, and add 150 μL of cold assay buffer described above to each well. Third, add […] each of cold [^125 I]-ET-1 and competing ligand to the solution (at the same time if possible). Next, place dish in a 37° C. water bath for about 2 hours and gently agitate the dish every 15 minutes. Discard the radioactive incubation mixture in the sink and wash wells 3 times with 1 mL of cold phosphate buffered saline. Last, add […] of 0.25 molar sodium hydroxide, agitate for 1 hour on a rotator, and then transfer the sodium hydroxide extract to gamma counting tubes and count the radioactivity.

[3] = biological target: T2, endothelin receptor (ETB), rat cerebellar membranes (Rattus norvegicus, UniProt P21451); assay: Endothelin Receptor Binding Assay-B (ERBA-B), [125I]-ET-1 binding in rat cerebellar membranes; conditions: [125I]-ET-1 25 pM, read-out: ERRA-B IC50
T2 construct: thaw one aliquot of frozen rat cerebellar membranes (2 mg protein in 0.5 mL); from tissue; host or cells: rat cerebellum (membranes)
T2 sequence (P21451 27-442): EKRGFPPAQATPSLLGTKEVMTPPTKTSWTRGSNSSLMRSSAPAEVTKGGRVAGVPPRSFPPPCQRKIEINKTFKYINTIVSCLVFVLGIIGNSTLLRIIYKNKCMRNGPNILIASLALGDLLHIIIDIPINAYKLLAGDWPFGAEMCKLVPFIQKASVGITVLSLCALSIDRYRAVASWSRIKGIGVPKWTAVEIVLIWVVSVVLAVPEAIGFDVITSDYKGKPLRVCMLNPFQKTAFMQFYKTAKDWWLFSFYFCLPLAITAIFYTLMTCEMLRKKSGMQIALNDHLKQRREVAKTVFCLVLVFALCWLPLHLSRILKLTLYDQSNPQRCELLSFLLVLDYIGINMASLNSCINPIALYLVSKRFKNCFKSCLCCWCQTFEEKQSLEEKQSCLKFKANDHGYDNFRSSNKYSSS
Description: Endothelin Receptor Binding Assay-B (ERBA-B) [^125 I]-ET-1 Binding in Rat Cerebellar Membranes
The tissue is made up of 20 mM tris(hydroxymethyl)aminomethane hydrochloride (Trizma) buffer, 2 mM ethylenediaminetetra acetate, 100 μM phenylmethylsulfonyl fluoride.
First, thaw one aliquot of frozen rat cerebellar membranes (2 mg protein in 0.5 mL). Next, add 0.5 mL membrane aliquot to 4.5 mL cold tissue buffer, polytron at 7,500 revolutions per minute for 10 seconds. Finally, dilute tissue suspension 1/100 (0.1 mL suspension+9.9 mL tissue buffer), polytron again, and place ice.
Medium 199 with Hank's salts plus 25 mM Hepes+1 mg/mL bovine serum albumin.
Amersham [^125 I]-ET-1 (aliquots of 2×10^6 cpm per […] aliquot of [^125 I]-ET-1 with 5.2 mL dilution buffer, place on ice until use (final concentration will be 20,000 cpm per tube, or 25 pM).
Add 50 μL each of cold [^125 ]-ET-1 and competing ligand to tubes on ice. Mix in 150 μL of tissue to each tube, vortex briefly, then tap to force all liquids to bottom (total assay volume=250 μL). Then place the tubes in a 37° C. water bath for 2 hours.
Add 2.5 mL cold wash buffer (50 mM Trizma buffer) to each tube, filter, and then wash tube with additional 2.5 mL wash buffer and add to filter. Finally, wash filters with an additional 2.5 mL of cold wash buffer.
Count filters for radioactivity in gamma counter.

[4] = tested on: ETA (rabbit femoral artery); conditions: ET-1 as agonist, endothelium-denuded rings
Excerpt: (§1) In Vitro Antagonism of ET-1 Stimulated Vasoconstriction in the Rabbit Femoral Artery (ETA) and Sarafotoxin 6c Stimulated Vasoconstriction in the Rabbit Pulmonary Artery (ETB)
(§2) Male New Zealand rabbits were killed by cervical dislocation and exsanguination. Femoral and pulmonary arteries were isolated, cleaned of connective tissue, and cut into 4-mm rings. The endothelium was denuded by placing the rings over hypodermic tubing (32 guage for femoral rings and 28 guage for pulmonary rings, Small Parts, Inc, Miami, Fla.) and gently rolling them. Denuded rings were mounted in 20 mL organ baths containing Krebs-bicarbonate buffer (composition in mM: NaCl, 118.2; NaHCO3, 24.8; KCl, 4.6; MgSO4 7.H2 O, 1.2; KH2 PO4, 1.2; CaCl2.2H2 O; Ca--Na2 EDTA, 0.026; dextrose, 10.0), that was maintained at 37° C. and gassed continuously with 5% CO2 in oxygen (pH 7.4). Resting tension was adjusted to 3.0 g for femoral and 4.0 g pulmonary arteries; the rings were left for 90 minutes to equilibrate.

[5] = biological target: T3, rat recombinant ETB receptor (CHO cells) (Rattus norvegicus, UniProt P21451); assay: Inhibition of ET-1 stimulated arachidonic acid release (AAR-B); type: cell-based; conditions: ET-1 0.3 nM
T3 construct: expressed in transfected cells; host or cells: CHO cells
T3 sequence (P21451 27-442): T2 sequence (P21451 27-442)
Description: (§3) In Vitro Inhibition of ET-1 Stimulated Arachidonic Acid Release in Cultured Rabbit Vascular Smooth Muscle Cells (AAR-A) or CHO Cells Expressing Rat Recombinant ETB Receptor (AAR-B) by Compounds of Formula I
(§4) Antagonist activity is measured by the ability of added compounds to reduce endothelin-stimulated arachidonic acid release in cultured vascular smooth muscle cells as arachidonic acid release (AAR). [^3 H] Arachidonic Acid Loading Media (LM) is DME/F12+0.5% fetal calf serum (FCS)×0.25 mCi/mL [^3 H] arachidonic acid (Amersham). Confluent monolayers of cultured rabbit renal artery vascular smooth muscle cells (AAR-A) or CHO cells expressing rat recombinant ETB receptor (AAR-B) were incubated in 0.5 mL of the LM over 18 hours, at 37° C., in 5% CO2. The LM was aspirated and the cells were washed once with the assay buffer (Hank's balanced salt solution [BSS]+10 mM HEPES+fatty acid-free BSA (1 mg/mL)), and incubated for 5 minutes with 1 mL of the prewarmed assay buffer. This solution was aspirated, followed by an additional 1 mL of prewarmed assay buffer, and further incubated for another 5 minutes. A final 5-minute incubation was carried out in a similar manner. The same procedure was repeated with the inclusion of 10 μL of the test compound (1 nM to 1 μM) and 10 μL ET-1 (0.3 nM) and the incubation was extended for 30 minutes. This solution was then collected, […] of scintillation cocktail was added, and the amount of [^3 H] arachidonic acid was determined in a liquid scintillation counter.

[6] = tested on: endothelin receptor, cultured rabbit renal artery vascular smooth muscle cells; assay: Inhibition of ET-1 stimulated arachidonic acid release (AAR-A); type: cell-based; conditions: ET-1 0.3 nM
Description: as §3, §4

[7] = biological target: ETB (rabbit pulmonary artery) (Oryctolagus cuniculus, UniProt Q9N0W7)
Excerpt: as §1, §2

[8] = tested on: CaCO-2 cells (human colon adenocarcinoma cell line); type: in vitro ADME
Description: For experiments, the cells were counted, then diluted to 2.5×10^5 cells/mL for planting (400 μL per well) onto Snapwell culture membranes with 2.5 mL media in the lower chamber. Media in the […] was changed every 2 to 3 days. Cells used for this series of experiments were between passage 38 and 91. 2-[N-Morpholino]ethanesulfonic acid (MES)+25 mM glucose was used as incubation buffer for all the experiments and all incubation solutions were prepared to an osmotic pressure of 280 to 300 milliosmoles. The concentration of the endothelin antagonist being studied (for all experiments) was 100 μM and another endothelin antagonist with similar HPLC characteristics (retention time 2-3 minutes from the ET antagonist being studied, and similar chemical characteristics) was used at a concentration of 25 μM as an internal standard to compensate for any injection error. Prior to the start of the experiment, the transepithelial electrical resistance (TEER) was measured for each Snapwell (in media) at three points of the membrane. […] The membranes were washed by swirling in 0.9% normal saline and mounted in the pretreated diffusion chambers [0.1 mg/mL human serum albumin for 1 to 2 hours at 37° C. with O2 bubbling followed by air drying at 37° C. overnight, then with 4.5 to 5.0 mL dosing solution (MES+glucose+^14 C-PEG-4000 (5000 dpm/50 μL)+drug) for 5 minutes and 4.5 to 5.0 mL MES+glucose rinse just before the experiment.] The apical (donor) side was filled with 4.5 to 5.0 mL dosing solution, the basolateral (receiver) side with MES+glucose. Samples were removed from the donor and receiver compartments over the course of the experiment and analyzed for ^14 C-PEG 4000 (cell membrane integrity) and endothelin content.

Chain of ETB (rabbit pulmonary artery) (Q9N0W7 27-441): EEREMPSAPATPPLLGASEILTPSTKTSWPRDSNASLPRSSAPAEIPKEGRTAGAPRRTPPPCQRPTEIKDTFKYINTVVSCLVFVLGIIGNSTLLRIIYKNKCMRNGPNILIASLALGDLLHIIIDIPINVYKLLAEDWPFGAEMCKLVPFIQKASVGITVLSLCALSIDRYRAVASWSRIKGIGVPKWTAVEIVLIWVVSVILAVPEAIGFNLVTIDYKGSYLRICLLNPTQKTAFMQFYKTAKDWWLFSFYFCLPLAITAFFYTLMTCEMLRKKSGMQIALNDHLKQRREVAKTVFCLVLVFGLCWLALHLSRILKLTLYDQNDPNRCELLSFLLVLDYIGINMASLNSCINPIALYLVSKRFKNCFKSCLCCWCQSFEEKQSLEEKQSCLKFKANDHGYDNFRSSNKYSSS

N-Acetyl-ET[10-21,11,15-Ala]
effect on vascular tone [1]: caused vasorelaxation

CC[C@H](C)[C@H](NC(=O)[C@H](CC(=O)O)NC(=O)[C@H](CC(C)C)NC(=O)[C@H](N)C1c2ccccc2CCc2ccccc21)C(=O)N[C@H](C(=O)N[C@@H](Cc1c[nH]c2ccccc12)C(=O)O)[C@@H](C)CC [Example 2, D-Bhg-Leu-Asp-Ile-Ile-Trp] (HELM PEPTIDE1{[N[C@@H](C(=O)[*:2])C1c2ccccc2CCc2ccccc21].L.D.I.I.W}$$$$V2.0)
IC50 [2]: 0.45 µM | IC50 [3]: 2.1 µM | pA2 Femoral [4]: 5.7 | IC50 [5]: 9.6 µM | IC50 [6]: 0.1 µM

CC[C@H](C)[C@H](NC(=O)[C@H](CC(=O)O)NC(=O)[C@H](CCC(=O)O)NC(=O)[C@H](NC(C)=O)C1c2ccccc2CCc2ccccc21)C(=O)N[C@H](C(=O)N[C@@H](Cc1c[nH]c2ccccc12)C(=O)O)[C@@H](C)CC [Example 8, Ac-D-Bhg-Glu-Asp-Ile-Ile-Trp] (HELM PEPTIDE1{[ac].[O=C([C@H](N[*:1])C1c2ccccc2CCc2ccccc21)[*:2]].E.D.I.I.W}$$$$V2.0)
IC50 [2]: 0.0055 µM | IC50 [3]: 0.022 µM | Kb [7]: 0.1 µM | pA2 Femoral [4]: 6.5 | IC50 [5]: 0.027 µM | IC50 [6]: 0.007 µM

CC[C@H](C)[C@H](NC(=O)[C@@H](NC(=O)[C@@H](CC(=O)O)NC(=O)[C@H](CC(C)C)NC(=O)[C@H](NC(C)=O)C1c2ccccc2CCc2ccccc21)[C@@H](C)CC)C(=O)N[C@@H](Cc1c[nH]c2ccccc12)C(=O)O [Example 16, Ac-D-Bhg-Leu-D-Asp-Ile-Ile-Trp] (HELM PEPTIDE1{[ac].[O=C([C@H](N[*:1])C1c2ccccc2CCc2ccccc21)[*:2]].L.[dD].I.I.W}$$$$V2.0)
IC50 [2]: 0.14 µM | IC50 [3]: 0.4 µM | absorption in the gut suggested by CaCO-2 values [8]: 5-10%

CC[C@H](C)[C@H](NC(=O)[C@H](CC(=O)O)NC(=O)[C@H](CCCN)NC(=O)[C@H](NC(C)=O)C1c2ccccc2CCc2ccccc21)C(=O)N[C@H](C(=O)N[C@@H](Cc1c[nH]c2ccccc12)C(=O)O)[C@@H](C)CC [Example 7, Ac-D-Bhg-Orn-Asp-Ile-Ile-Trp] (HELM PEPTIDE1{[ac].[O=C([C@H](N[*:1])C1c2ccccc2CCc2ccccc21)[*:2]].[Orn].D.I.I.W}$$$$V2.0)
IC50 [2]: 0.022 µM | IC50 [3]: 1.5 µM | pA2 Femoral [4]: 6.5 | IC50 [6]: 0.037 µM

ET[6-21, 1,3,11,15-Ala]
effect on vascular tone [1]: caused vasorelaxation

ET[1,3,11,15-Ala]: linear ET analog, reported selective ETB agonist (ASASSLMDKEAVYFAHLDIIW; Endothelin-1; UniProt P05305 53-73, looked up, variant C1A C3A C11A C15A)
effect on vascular tone [1]: caused vasorelaxation

ET[8-21,11,15-Ala]
effect on vascular tone [1]: caused vasorelaxation

CC[C@H](C)[C@H](NC(=O)[C@H](CC(=O)O)NC(=O)[C@H](CC(C)C)NC(=O)[C@H](NC(C)=O)C1c2ccccc2C=Cc2ccccc21)C(=O)N[C@H](C(=O)N[C@@H](Cc1c[nH]c2ccccc12)C(=O)O)[C@@H](C)CC [Example 6, Ac-D-Bheg-Leu-Asp-Ile-Ile-Trp] (HELM PEPTIDE1{[ac].[O=C([C@H](N[*:1])C1c2ccccc2C=Cc2ccccc21)[*:2]].L.D.I.I.W}$$$$V2.0)
IC50 [2]: 0.005 µM | IC50 [3]: 0.019 µM | Kb [7]: 0.0398 µM | pA2 Femoral [4]: 6.8 | IC50 [5]: 0.017 µM | IC50 [6]: 0.003 µM
